Laboratory results reported in patent US8114880B2, “Piperidine or piperazine substituted tetrahydro-naphthalene-1-carboxylic acid MTP inhibiting compounds” (Janssen Pharmaceutica N.V., priority 2006, dated 2012).

tested on: HepG2 cells; test: Quantification of the secretion of ApoB; type: cell-based; conditions: Homo sapiens, HepG2, 24 h, 24 hours of incubation, pIC50 = -log IC50
Procedure, shortened: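 At 70% confluency, HepG2 cells received compound (0.4% DMSO final) for 24 h. Secreted apoB in cleared medium was immunoprecipitated with sheep anti-apoB then rabbit anti-sheep antibody (24 h each at 8° C.), and pellet radioactivity was counted by scintillation. IC50 values were expressed as pIC50.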

Row | Compound | IC50
1 | COC(=O)[C@H](CCCCNC(=O)OC(C)(C)C)NC(=O)[C@@]1(c2ccccc2)CC[C@H](C(=O)N2CCC(NC(=O)c3cccn(C)c3=O)CC2)c2ccccc21 [Co. No. 148] | > 1000 nM
2 | CCOC(=O)CCNC(=O)[C@@]1(c2ccccc2)CC[C@H](C(=O)N2CCC(NC(=O)c3cccn(C)c3=O)CC2)c2ccccc21 [Co. No. 159] | > 1000 nM
3 | Cn1cccc(C(=O)NC2CCN(C(=O)[C@H]3CC[C@@](C(=O)NCCC(=O)OC(C)(C)C)(c4ccccc4)c4ccccc43)CC2)c1=O [Co. No. 164] | > 1000 nM
4 | Cn1cccc(C(=O)NC2CCN(C(=O)[C@H]3CC[C@@](C(=O)N[C@@H](CCCCNC(=O)OC(C)(C)C)C(=O)OC(C)(C)C)(c4ccccc4)c4ccccc43)CC2)c1=O [Co. No. 172] | > 1000 nM
5 | CCOC(=O)CC(C)NC(=O)[C@@]1(c2ccccc2)CC[C@H](C(=O)N2CCC(NC(=O)c3ccccc3OC)CC2)c2ccccc21 (stereo partly shown) [Co. No. 200] | 255 nM
6 | COC(=O)CCCNC(=O)[C@@]1(c2ccccc2)CC[C@H](C(=O)N2CCC(NC(=O)c3ccccc3OC)CC2)c2ccccc21 [Co. No. 201] | > 1000 nM
7 | CCOC(=O)CCCNC(=O)[C@@]1(c2ccccc2)CC[C@H](C(=O)N2CCC(NC(=O)c3ccccc3OC)CC2)c2ccccc21 [Co. No. 202] | 793 nM
8 | COC(=O)CCCCNC(=O)[C@@]1(c2ccccc2)CC[C@H](C(=O)N2CCC(NC(=O)c3ccccc3OC)CC2)c2ccccc21 [Co. No. 204] | > 1000 nM
9 | COC(=O)CCCCCNC(=O)[C@@]1(c2ccccc2)CC[C@H](C(=O)N2CCC(NC(=O)c3ccccc3OC)CC2)c2ccccc21 [Co. No. 207] | > 1000 nM
10 | COc1ccccc1C(=O)NC1CCN(C(=O)[C@H]2CC[C@@](C(=O)NCCCCCC(=O)OC(C)(C)C)(c3ccccc3)c3ccccc32)CC1 [Co. No. 209] | > 1000 nM

Stronger by IC50, values ahead:

Row | IC50 | Compound
11 | 95.7 nM | CCOC(=O)NCCCC[C@H](NC(=O)[C@@]1(c2ccccc2)CC[C@H](C(=O)N2CCC(NC(=O)c3ccccc3OC)CC2)c2ccccc21)C(=O)OCC [Co. No. 211]
12 | 75.5 nM | CCOC(=O)CCCCNC(=O)[C@@]1(c2ccccc2)CC[C@H](C(=O)N2CCC(NC(=O)c3ccccc3OC)CC2)c2ccccc21 [Co. No. 205]
13 | 57.7 nM | COc1ccccc1C(=O)NC1CCN(C(=O)[C@H]2CC[C@@](C(=O)NCCCCCC(=O)OC(C)C)(c3ccccc3)c3ccccc32)CC1 [Co. No. 208]
14 | 42.4 nM | COc1ccccc1C(=O)NC1CCN(C(=O)[C@H]2CC[C@@](C(=O)NCCCCC(=O)OC(C)C)(c3ccccc3)c3ccccc32)CC1 [Co. No. 206]
15 | 30 nM | COc1ccccc1C(=O)NC1CCN(C(=O)[C@H]2CC[C@@](C(=O)NCCCC(=O)OC(C)(C)C)(c3ccccc3)c3ccccc32)CC1 [Co. No. 203]
16 | 8.67 nM | CCOC(=O)[C@H](CCCCNC(=O)OC(C)(C)C)NC(=O)[C@@]1(c2ccccc2)CC[C@H](C(=O)N2CCC(NC(=O)c3ccccc3OC)CC2)c2ccccc21 [Co. No. 210]
17 | 7.36 nM | COc1ccccc1C(=O)NC1CCN(C(=O)[C@H]2CC[C@@](C(=O)NCCC(=O)OC(C)C)(c3ccccc3)c3ccccc32)CC1 [Co. No. 199]

biological target: MTP (Homo sapiens, UniProt P55157); test: MTP assay (triglyceride transfer from donor to acceptor vesicles); type: biochemical; conditions: MTP activity, percent triglyceride transfer from donor to acceptor vesicles, 37° C.
Procedure, shortened: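 Radiolabelled triglyceride transfer from donor vesicles (phosphatidylcholine, 7.5 mol % cardiolipin, 0.25 mol % glycerol tri[1-^14C]-oleate) to phosphatidylcholine acceptor vesicles with BSA, pH 7.5 Tris buffer; compounds in DMSO (0.13% final), 5 min preincubation at 37° C before MTP addition. Donor vesicles removed on DEAE-52; acceptor-supernatant ^14C counts give percent transfer.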

MTP, sequence (P55157 19-894, species assumed): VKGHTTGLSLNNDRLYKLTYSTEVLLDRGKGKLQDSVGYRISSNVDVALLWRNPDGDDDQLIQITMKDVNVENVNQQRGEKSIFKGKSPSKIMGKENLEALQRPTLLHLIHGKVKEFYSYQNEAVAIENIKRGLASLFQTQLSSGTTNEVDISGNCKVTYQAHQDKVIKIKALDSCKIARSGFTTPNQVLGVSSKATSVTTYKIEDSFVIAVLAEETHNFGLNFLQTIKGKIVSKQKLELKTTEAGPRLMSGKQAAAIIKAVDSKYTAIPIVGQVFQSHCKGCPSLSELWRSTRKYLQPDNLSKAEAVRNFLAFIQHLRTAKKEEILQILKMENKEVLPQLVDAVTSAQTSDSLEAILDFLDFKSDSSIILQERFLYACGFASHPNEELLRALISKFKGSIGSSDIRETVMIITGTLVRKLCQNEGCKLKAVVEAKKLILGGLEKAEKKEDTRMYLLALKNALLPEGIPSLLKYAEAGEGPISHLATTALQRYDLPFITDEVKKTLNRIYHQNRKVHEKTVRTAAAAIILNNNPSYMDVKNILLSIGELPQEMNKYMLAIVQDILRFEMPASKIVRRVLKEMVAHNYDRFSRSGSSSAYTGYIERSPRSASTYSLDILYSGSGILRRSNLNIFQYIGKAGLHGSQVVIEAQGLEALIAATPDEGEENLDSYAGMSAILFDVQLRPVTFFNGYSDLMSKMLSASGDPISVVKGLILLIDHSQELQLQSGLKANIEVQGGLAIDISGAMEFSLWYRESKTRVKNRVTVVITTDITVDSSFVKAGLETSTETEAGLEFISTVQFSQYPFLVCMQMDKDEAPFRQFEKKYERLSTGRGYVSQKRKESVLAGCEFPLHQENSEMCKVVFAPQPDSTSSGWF
MTP, sequence (P07237 18-508 partner, species assumed): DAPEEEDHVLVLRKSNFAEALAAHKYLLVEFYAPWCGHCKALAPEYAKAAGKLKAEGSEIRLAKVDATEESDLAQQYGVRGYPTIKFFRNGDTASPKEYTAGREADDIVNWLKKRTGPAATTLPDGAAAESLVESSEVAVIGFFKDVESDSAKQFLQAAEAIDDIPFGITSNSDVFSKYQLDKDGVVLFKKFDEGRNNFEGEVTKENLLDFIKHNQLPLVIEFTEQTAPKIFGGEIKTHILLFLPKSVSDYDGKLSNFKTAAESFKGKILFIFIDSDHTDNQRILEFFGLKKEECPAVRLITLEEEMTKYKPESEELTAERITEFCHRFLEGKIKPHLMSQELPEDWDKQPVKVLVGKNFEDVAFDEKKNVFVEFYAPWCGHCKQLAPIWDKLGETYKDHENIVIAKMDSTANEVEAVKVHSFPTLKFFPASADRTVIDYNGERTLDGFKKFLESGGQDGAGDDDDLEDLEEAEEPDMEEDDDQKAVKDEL

Row | Compound | IC50
18 | COC(=O)[C@H](CCCCNC(=O)OC(C)(C)C)NC(=O)[C@@]1(c2ccccc2)CC[C@H](C(=O)N2CCC(NC(=O)c3cccn(C)c3=O)CC2)c2ccccc21 [Co. No. 148] | 131 nM
19 | CCOC(=O)CCNC(=O)[C@@]1(c2ccccc2)CC[C@H](C(=O)N2CCC(NC(=O)c3cccn(C)c3=O)CC2)c2ccccc21 [Co. No. 159] | 129 nM
20 | Cn1cccc(C(=O)NC2CCN(C(=O)[C@H]3CC[C@@](C(=O)NCCC(=O)OC(C)(C)C)(c4ccccc4)c4ccccc43)CC2)c1=O [Co. No. 164] | 65.2 nM
21 | Cn1cccc(C(=O)NC2CCN(C(=O)[C@H]3CC[C@@](C(=O)N[C@@H](CCCCNC(=O)OC(C)(C)C)C(=O)OC(C)(C)C)(c4ccccc4)c4ccccc43)CC2)c1=O [Co. No. 172] | 33.6 nM
22 | CCOC(=O)CC(C)NC(=O)[C@@]1(c2ccccc2)CC[C@H](C(=O)N2CCC(NC(=O)c3ccccc3OC)CC2)c2ccccc21 (stereo partly shown) [Co. No. 200] | 6.79 nM
23 | COC(=O)CCCNC(=O)[C@@]1(c2ccccc2)CC[C@H](C(=O)N2CCC(NC(=O)c3ccccc3OC)CC2)c2ccccc21 [Co. No. 201] | 7.76 nM
24 | CCOC(=O)CCCNC(=O)[C@@]1(c2ccccc2)CC[C@H](C(=O)N2CCC(NC(=O)c3ccccc3OC)CC2)c2ccccc21 [Co. No. 202] | 3.16 nM
25 | COC(=O)CCCCNC(=O)[C@@]1(c2ccccc2)CC[C@H](C(=O)N2CCC(NC(=O)c3ccccc3OC)CC2)c2ccccc21 [Co. No. 204] | 58.7 nM
26 | COC(=O)CCCCCNC(=O)[C@@]1(c2ccccc2)CC[C@H](C(=O)N2CCC(NC(=O)c3ccccc3OC)CC2)c2ccccc21 [Co. No. 207] | 2.59 nM
27 | COc1ccccc1C(=O)NC1CCN(C(=O)[C@H]2CC[C@@](C(=O)NCCCCCC(=O)OC(C)(C)C)(c3ccccc3)c3ccccc32)CC1 [Co. No. 209] | 36.2 nM

Now from value to compound:

Row | IC50 | Compound
28 | 6.1 nM | CCOC(=O)NCCCC[C@H](NC(=O)[C@@]1(c2ccccc2)CC[C@H](C(=O)N2CCC(NC(=O)c3ccccc3OC)CC2)c2ccccc21)C(=O)OCC [Co. No. 211]
29 | 5.45 nM | CCOC(=O)CCCCNC(=O)[C@@]1(c2ccccc2)CC[C@H](C(=O)N2CCC(NC(=O)c3ccccc3OC)CC2)c2ccccc21 [Co. No. 205]
30 | 1.86 nM | COc1ccccc1C(=O)NC1CCN(C(=O)[C@H]2CC[C@@](C(=O)NCCCCCC(=O)OC(C)C)(c3ccccc3)c3ccccc32)CC1 [Co. No. 208]
31 | 2.96 nM | COc1ccccc1C(=O)NC1CCN(C(=O)[C@H]2CC[C@@](C(=O)NCCCCC(=O)OC(C)C)(c3ccccc3)c3ccccc32)CC1 [Co. No. 206]
32 | 2.05 nM | COc1ccccc1C(=O)NC1CCN(C(=O)[C@H]2CC[C@@](C(=O)NCCCC(=O)OC(C)(C)C)(c3ccccc3)c3ccccc32)CC1 [Co. No. 203]
33 | 2.95 nM | CCOC(=O)[C@H](CCCCNC(=O)OC(C)(C)C)NC(=O)[C@@]1(c2ccccc2)CC[C@H](C(=O)N2CCC(NC(=O)c3ccccc3OC)CC2)c2ccccc21 [Co. No. 210]
34 | 1.32 nM | COc1ccccc1C(=O)NC1CCN(C(=O)[C@H]2CC[C@@](C(=O)NCCC(=O)OC(C)C)(c3ccccc3)c3ccccc32)CC1 [Co. No. 199]
